Tests used:
MBNL1-(CUG)16 complex = assay: EMSA inhibition of the MBNL1-(CUG)16 complex; assay type: biochemical; conditions: for Ki: KI=IC50×KD/[protein]total, read-out: KI, apparent inhibition constant, MBNL1-(CUG)16 complex
Description: FIG. 1A-B. Determination of inhibition constants, KI, by EMSA. (a) Representative gels showing the release of (CUG)16 at different ligand concentrations. Top band is the MBNL1-(CUG)16 complex, the bottom band is the free (CUG)16. (b) IC50 values were obtained by plotting the RNA fraction bound versus ligand concentrations. The apparent inhibition constant (KI) was calculated using the equation: KI=IC50×KD/[protein]total, where KD is the dissociation constant of the MBNL1-RNA complex and [protein] is at least 7-fold greater than the KD. Error bars represent standard deviation of three independent experiments.
An electrophoretic mobility shift assay (EMSA) was employed to determine the in vitro inhibition of MBNL1-rCUG^exp complex by monomer 1a and dimers 2a-b (FIG. 1). This study used (CUG)16, which can form a hairpin structure containing a maximum of 8 U-U mismatches. […] Likely, a 1:1 complex was formed. In this study, a truncated MBNL1 (1-272 amino acids) containing four zinc finger motifs of MBNL1 and a hexahistidine tag (C-terminus) was employed. This MBNL1 construct and the full-length MBNL1 have the similar affinities to rCUG repeats.
To determine the inhibition constant of bivalent ligands 2a and 2b, the MBNL1-(CUG)16 mixture, in which ca. 50% of the RNA is free, was incubated with various concentrations of ligand (FIG. 1a). The dimer concentrations were not raised to higher than 10 μM due to the aggregation on the gel at high concentrations. As the concentration of ligand increased, more RNA was released from the complex with MBNL protein. By fitting the plot of bound RNA fractions versus ligand concentrations with an appropriate equation, the IC50 value was determined (FIG. 1b).
(CUG)16 RNA was labeled with [γ-^32P]-ATP using T4 poly-nucleotide kinase (New England Biolabs). Labeled RNA was purified by phenol extraction and ethanol precipitation. Labeled RNA was heated at 95° C. for 5 min, then placed on ice for 10 min and diluted in protein binding buffer (175 mM NaCl, 5 mM MgCl2, 20 mM Tris-HCl (pH 8), 1.25 mM 2-mercapto-ethanol (BME), 12.5% glycerol, 2 mg/ml bovine serum albumin (BSA), 0.1 mg/ml heparin, 0.05% or 0.1% Triton X). For MBNL1-(CUG)16 binding study, MBNL1 was serially diluted by a factor of 3 in protein binding buffer. To each solution was added labeled RNA, so that the final concentration of RNA was 0.2 nM. The resulting mixtures were incubated at room temperature for 10 min and loaded onto a 6% polyacrylamide gel (80:1) at 4° C. The gel was run for 2 h at 180 V in Tris-Borate 0.5× buffer (pH 8.2-8.3). Gels were dried at 80° C. under high vacuum for 2 h, developed overnight in phosphor exposure cassette, and visualized on a Molecular Dynamics Storm PhosphorImager. The KD (1:1 stoichiometry assumption) was obtained by fitting the normalized fraction RNA bound versus the concentration of protein using the equation: Fraction RNA bound=Bmax×[MBNL1]total^h/(KD^h+MBNL1]total^h) where Bmax is maximum fraction RNA bound, h is a Hill slope. Protein concentration in reaction mixture was larger than 10-fold excess over RNA concentration. Data is illustrated in FIGS. 6 and 7.

[1] = test system: insulin receptor (IR) pre-mRNA splicing; assay: Correction of IR alternative splicing in DM1 cell model (RT-PCR); assay type: cell-based; conditions: 1 μM
Excerpt: FIG. 3A-B. (a) Schematic representation of IR alternative splicing. (b) Correction of IR splicing by compounds 2a and 1a as determined by conventional RT-PCR. Error bars represent standard deviation for three independent experiments, two-tail t-test *P<0.01,**P<0.005.
Because 2a is capable of inhibiting MBNL1-rCUG^exp both in vitro and in cells, we evaluated its ability to correct the splicing defects in the DM1 cell model. We chose to examine the IR mRNA mis-splicing, because among several pre-mRNA splicing defects associated with the depletion of MBNL1 protein, the reversal of IR splicing requires the largest amount of free MBNL1 and is therefore the more challenging defect. During the alternative splicing of IR, two products were generated: isoforms IR-A and IR-B with the exclusion and inclusion of exon 11, respectively (FIG. 3a). In normal skeletal muscle, IR-B is the dominant isoform, whereas IR-A is more abundant in DM1 skeletal muscle. […] In particular, compound 2a at 1 μM increased the abundance of isoform B to 49% (ca. 80% correction).
ITC, EMSA, confocal microscopy, IR splicing, and the reversal of rough-eye phenotype assays were conducted as previously described (Wong et al., J. Am. Chem. Soc. 2014, 136, 6355-6361). […]

HeLa cells = assay: SRB cytotoxicity assay; assay type: cell-based
Description: This finding indicates an advantage of the bisamidinium-based ligands over the acridine-containing ligands.
ITC, EMSA, confocal microscopy, IR splicing, and the reversal of rough-eye phenotype assays were conducted as previously described (Wong et al., J. Am. Chem. Soc. 2014, 136, 6355-6361). The cytotoxicity of 2a was accessed using a published protocol (Vichai et al., Sulforhodamine B colorimetric assay for cytotoxicity screening, Nat. Protoc. 2006, 1, 1112-1116).

[2] = earlier work; cited from earlier work
MBNL1-(CUG)12 complex = conditions: earlier work; read-out: KI, inhibition of MBNL1-(CUG)12 complex; cited from earlier work
[3] = test system: MBNL1-rCUG^exp nuclear foci; conditions: cited from earlier work
[4] = test system: insulin receptor (IR) pre-mRNA splicing; conditions: DM1 model cells; cited from earlier work

Structure (SMILES)	inhibitory power toward the MBNL1-rCUG^exp interaction relative to compound 1a (fold greater) (MBNL1-(CUG)16 complex)	IC50 (MBNL1-(CUG)16 complex; EMSA)	Ki (MBNL1-(CUG)16 complex; EMSA)	correction of IR splicing ([1]; DM1 cell model)	abundance of IR isoform B ([1]; DM1 cell model (normal ca. 53%, DM1 34%))	HeLa cell death (HeLa cells; 100 μM, 96 h)	cellular toxicity (HeLa cells; lower concentrations (below 100 μM))	water solubility [2]	Ki (MBNL1-(CUG)12 complex)	KI of 1a relative to that for 2a and 2b (fold higher) (MBNL1-(CUG)16 complex; EMSA, identical conditions)	reduction of foci to (previous study) ([3]; 100 μM, previous study)	MBNL1-rCUG^exp nuclear foci in DM1 model cells (earlier work) ([3]; earlier work)	mis-splicing of cTNT and IR pre-mRNA (earlier work) [4]
N=C(NCCCCNc1nc(N)nc(N)n1)c1ccc(C(=N)NCCCCNc2nc(N)nc(NCCCn3cc(CNc4nc(N)nc(NCCCCNC(=N)c5ccc(C(=N)NCCCCNc6nc(N)nc(N)n6)cc5)n4)nn3)n2)cc1 [Compound 2a]	ca. 1000 fold	0.29 ± 0.03 µM	0.025 ± 0.008 µM	ca. 80%	49%	ca. 10%	negligible cellular toxicity						
N=C(NCCCCNc1nc(N)nc(N)n1)c1ccc(C(=N)NCCCCNc2nc(N)nc(N)n2)cc1 [Compound 1a]		189 ± 33 µM	16 ± 6 µM					excellent water solubility	8 µM	~1000 fold	32%	dissolved foci	partially rescuing the mis-splicing

Reference: patent US10266520B2, “Bisamidinium-based inhibitors for the treatment of myotonic dystrophy” (The Board of Trustees of the University of Illinois, priority 2014, dated 2019)
